Patent US20190369122A1, “METABOLIC DISORDERS” (priority 2016, published 2019)

Assays:
[1] = Plasma levels after intraperitoneal injection in CONVR mice; assay type: in vivo, mouse; settings: 100 μg i.p. twice per day for 3 days
Description: (§1) An intraperitoneal glucose tolerance test (using 1 g glucose per kg body weight) was then performed after a 4 h fast. Blood glucose levels were measured from tail blood using HemoCue201+analyzer (HemoCue, Angelholm, Sweden). Liver and plasma samples were collected after a 4 h fast. Mice were under isoflurane anesthesia and killed by cervical dislocation. Fresh liver was taken and snap-frozen in liquid nitrogen and stored at −80° C. until protein extraction.
(§2) The samples were then reconstituted with 5% HCl in n-butanol at 70° C. for 1 h, allowing n-butyl ester to be formed. […] Samples (5 μl) were injected onto a C18 BEH column (2.1×100 mm with 1.7 μm particles; Waters, Milford, Mass.) using a gradient consisting of water with 0.1% formic acid (A-phase) and acetonitrile with 0.1% formic acid (B-phase). Mass spectrometric analysis was performed using an Infinity 1290 quaternary UPLC pump (Agilent, Santa Clara, Calif.) coupled to a QTRAP 5500 (ABSciex, Concord, Canada). […] For the internal standards, the transitions 206/81 and 204/93 were used.

[2] = test system: GF mice; test: Intraperitoneal glucose tolerance test in GF mice; assay type: in vivo, mouse; settings: 500 μg i.p. twice per day for 3 days
Description: as §1

[3] = Targeted measurements in portal and peripheral blood, first cohort; settings: human portal vs peripheral blood
Text: Two human cohorts were used in this study. The first cohort comprised five obese subjects with type 2 diabetes and ten BMI-matched subjects without type 2 diabetes who were undergoing laparoscopic Roux-and-Y gastric bypass surgery at the Slotervaart Hospital, Amsterdam, the Netherlands, see Table 2. Subjects were fasted overnight before the morning of the surgery, and a peripheral venous sample was taken just before the patient went into the operating room. Anthropometric measurements and a stool sample were also taken before surgery. During the surgery, a portal vein sample (vena puncture) was taken as previously described. Fasting glucose (by glucose meters, Roche Diagnostics), insulin (by an electrochemiluminescence immunoassay, Roche Modular System) and HbA1c (Menarini Diagnostic) were measured in the peripheral blood. All participants gave informed consent before the surgery and the protocol was approved by the Medical Ethical Committee of the Slotervaart Hospital, Amsterdam, the Netherlands.
The samples were then reconstituted with 5% HCl in n-butanol at 70° C. for 1 h, allowing n-butyl ester to be formed. […] Samples (5 μl) were injected onto a C18 BEH column (2.1×100 mm with 1.7 μm particles; Waters, Milford, Mass.) using a gradient consisting of water with 0.1% formic acid (A-phase) and acetonitrile with 0.1% formic acid (B-phase). […]

[4] = test system: mTORC1-Rag heterodimer complex-p62; test: Immunoprecipitation of FLAG mTOR: p62/Rag GTPases/mTORC1 complex formation; assay type: cell-based, human; settings: HEK293; 100 μM, absence of amino acids, 1 h
Description: (§3) Snap-frozen liver and harvested cells were lysed in buffer containing 50 mM Tris-HCl (pH 7.4), 150 mM NaCl, 1 mM EDTA, 1 mM Na3VO4, 20 mM NaF, 10 mM glycerophosphate, 1 mM PMSF, 10% glycerol, 1% Triton X-100 and protease inhibitor cocktail. For immunoprecipitation, the cell lysates were obtained in 0.3% CHAPS-containing lysis buffer, sonicated and centrifuged at 20,000 g for 15 min at 4° C., and the supernatant was incubated with 20 μl of anti-FLAG beads (Sigma) at 4° C. for 4 h under gentle agitation.
HEK293 cells (ATCC CRL-1573) were grown and maintained in high-glucose (4.5 g/l glucose) DMEM with 10% (v/v) FBS. All HEK293 cell experiments were performed in serum-starved and amino acid-deprived conditions. 24 h after transfection (with plasmids or siRNA as indicated), HEK293 cells cultured in poly-L-lysine-coated 60 mm dishes were rinsed twice with DMEM without FBS and incubated in serum-free DMEM for 18 h. HEK293 cells were then washed once with EBSS and incubated in EBSS for 1 h.

[5] = test system: CONVR mice; test: Metabolic cages (PhenoMaster) in CONVR mice; assay type: in vivo, mouse; settings: 100 μg i.p. twice a day for 3 days
Description: Mice were singly housed for two days before being transferred to the PhenoMaster cages, and allowed an additional 2 days to acclimatize to the new cage before taking measurements. Parameters were automatically measured every 15 min for 5 days. During the measurements, the mice had free access to water and food. […] Oxygen consumption (VO2) was calculated from measurements of oxygen and carbon dioxide concentration in the reference cage compared to the sample cage. Measurements of oxygen consumption and energy expenditure were adjusted to lean body mass, which was determined by MRI (EchoMRI, Houston, Tex., USA).

[6] = test system: G6pase, Pepck, Srebp1c, Fasn, Irs1, Irs2; test: Hepatic gene expression in GF mice (real-time PCR); assay type: in vivo, mouse; settings: 500 μg i.p. twice per day for 3 days
Description: as §1
Mouse liver was homogenized in RLT buffer with ([…] using TissueLyser (Qiagen, Hilden, Germany). RNA was isolated using the RNeasy Minikit (Qiagen) and reverse transcribed to synthesize cDNA using High Capacity cDNA Reverse Transcription Kit (Applied Biosystems, Foster City, Calif., USA) according to the manufacturer's protocol. Real-time PCR was performed using 1×SYBR Green Master Mix (Thermo Scientific, Waltham, Mass., USA) using the following primers.

[7] = test system: IRS1; test: Ubiquitination of IRS1; assay type: cell-based; settings: 6 h treatment
Description: Cells were lysed under denaturing condition with 100 μl buffer A containing 2% SDS, and the cell lysates were transferred to a 1.5-ml microcentrifuge tube. The tube was placed on a hot plate immediately at 95° C. for 10 min. The cell lysates were sonicated and 700 μl of buffer A without SDS was added. The samples were incubated at 4° C. for 30 min, followed by centrifugation (20,000 g, 20 min). The supernatant was incubated with 20 μl of anti-FLAG beads (Sigma) at 4° C. for 4 h under gentle agitation.

[8] = Circulating levels after intraperitoneal injection in GF mice; assay type: in vivo, mouse; settings: 500 μg intraperitoneally twice per day for 3 days
Description: as §1, §2

[9] = test system: CONVR mice; test: Intraperitoneal glucose tolerance test in CONVR mice; assay type: in vivo, mouse; settings: 100 μg i.p. twice per day for 3 days
Description: as §1

[10] = test system: primary hepatocytes; test: Insulin signaling in primary hepatocytes (immunoblot); assay type: cell-based, mouse
Description: as §3
Primary hepatocytes were isolated from C57BL/6J mice by digesting liver with perfusion of collagenase type IV as described previously. After perfusion, 16×10^5 cells were plated on collagen-coated 60 mm dishes in Dulbecco's modified Eagle's medium (DMEM)/F12 supplemented with fetal bovine serum (FBS), penicillin/streptomycin and 100 nM dexamethasone. After 4 h, the medium was changed to DMEM/F12 containing penicillin/streptomycin.

[11] = test system: mTORC2; test: mTOR modification in mTORC2 (Rictor immunoprecipitation), HEK293; assay type: cell-based, human
Description: as §3

SMILES: O=C(O)CCc1cnc[nH]1 [imidazole propionate]
- effect on urocanate levels [1]: without affecting
- increase of circulating concentrations of imidazole propionate [1]: around 4 fold
- glucose tolerance [2]: significant glucose intolerance
- metabolism inferred from similar portal and peripheral blood concentrations [3]: not metabolized
- formation of the mTORC1-Rag heterodimer complex-p62 [4]: induced
- energy expenditure in the early dark phase [5]: significantly reduced
- total locomotor activity [5]: not significantly reduced
- hepatic Irs1 and Irs2 mRNA levels [6]: no significant changes
- hepatic expression of Srebp1c and Fasn [6]: did not affect
- hepatic expression of G6pase and Pepck ([6]; vs controls): significantly increased
- ubiquitination of IRS1 [7]: promoted
- circulating concentrations of imidazole propionate [8]: around 13 nM
- effect on urocanate levels [8]: without affecting
- glucose tolerance [9]: impaired glucose tolerance
- IRS protein levels ([10]; 100 μM for 8 h): did not affect
- insulin-induced IRS1 Y612 phosphorylation ([10]; 100 μM for 8 h, insulin 5 nM): blunted
- IRS protein levels ([10]; 100 μM for 20 h): reduced
- basal Akt phosphorylation at both S473 and T308 ([10]; 8 h): induced
- insulin-induced Akt S473 phosphorylation ([10]; 8 h, insulin 5 nM): reduced
- insulin-induced Akt T308 phosphorylation ([10]; 8 h, insulin 5 nM): not
- IRS1 level ([10]; 14 h): dramatic reduction
- basal Akt phosphorylation at S473 and T308 ([10]; 14 h): increase
- insulin-induced Akt S473 phosphorylation ([10]; 14 h): lower
- insulin-induced Akt T308 phosphorylation ([10]; 14 h, vs vehicle): higher
- S6K1 phosphorylation ([10]; ImP 100 μM): increased
- p62 phosphorylation ([10]; ImP 100 μM for 24 h): induced
- modulation of mTORC2 ([11]; HEK293, 2 h incubation): not
- mTOR S2448 or S2481 phosphorylation in mTORC2 ([11]; Rictor immunoprecipitation): unaffected
